Measurements taken from PubChem BioAssay (NCI).
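Each compound was tested at five concentrations against cells in 96-well plates for 48 hours. GI50: concentration for 50% inhibition of growth. TGI denotes the concentration required for complete inhibition of growth.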

How the values were obtained:
Test in all cases: NCI anticancer screen, dose series, 48 h
U251 CNS = system: U251 CNS
CAKI-1 renal = system: CAKI-1 renal
BT-549 breast = system: BT-549 breast
K-562 leukemia = system: K-562 leukemia
HCT-15 colon = system: HCT-15 colon
SN12C renal = system: SN12C renal
A498 renal = system: A498 renal
OVCAR-8 ovarian = system: OVCAR-8 ovarian
EKVX NSCLC = system: EKVX NSCLC
UACC-257 melanoma = system: UACC-257 melanoma
LOX IMVI melanoma = system: LOX IMVI melanoma
SK-MEL-2 melanoma = system: SK-MEL-2 melanoma
UACC-62 melanoma = system: UACC-62 melanoma
HL-60(TB) leukemia = system: HL-60(TB) leukemia
HCT-116 colon = system: HCT-116 colon
HCC-2998 colon = system: HCC-2998 colon
SK-MEL-5 melanoma = system: SK-MEL-5 melanoma
MOLT-4 leukemia = system: MOLT-4 leukemia
HOP-62 NSCLC = system: HOP-62 NSCLC
DU-145 prostate = system: DU-145 prostate
MALME-3M melanoma = system: MALME-3M melanoma
HT29 colon = system: HT29 colon
SW-620 colon = system: SW-620 colon
SF-539 CNS = system: SF-539 CNS
SR leukemia = system: SR leukemia
SNB-75 CNS = system: SNB-75 CNS
HOP-92 NSCLC = system: HOP-92 NSCLC
RXF 393 renal = system: RXF 393 renal
SF-268 CNS = system: SF-268 CNS
UO-31 renal = system: UO-31 renal
NCI-H23 lung = system: NCI-H23 lung
MCF7 breast = system: MCF7 breast
OVCAR-4 ovarian = system: OVCAR-4 ovarian
MDA-MB-435 = system: MDA-MB-435
IGROV1 ovarian = system: IGROV1 ovarian
SK-OV-3 ovarian = system: SK-OV-3 ovarian
KM12 colon = system: KM12 colon
M14 melanoma = system: M14 melanoma
NCI-H226 lung = system: NCI-H226 lung
NCI-H460 lung = system: NCI-H460 lung
786-0 renal = system: 786-0 renal
PC-3 prostate = system: PC-3 prostate
SF-295 CNS = system: SF-295 CNS
SNB-19 CNS = system: SNB-19 CNS
COLO 205 colon = system: COLO 205 colon
TK-10 renal = system: TK-10 renal
ACHN renal = system: ACHN renal
CCRF-CEM leukemia = system: CCRF-CEM leukemia
T-47D breast = system: T-47D breast
NCI-H522 lung = system: NCI-H522 lung
OVCAR-5 ovarian = system: OVCAR-5 ovarian
MDA-MB-231 breast = system: MDA-MB-231 breast
HS 578T breast = system: HS 578T breast
NCI/ADR-RES ovarian = system: NCI/ADR-RES ovarian
A549 NSCLC = system: A549 NSCLC
RPMI-8226 leukemia = system: RPMI-8226 leukemia
SK-MEL-28 melanoma = system: SK-MEL-28 melanoma

`CN(C)CCNC(=O)c1ccc(-c2nc3ccc4[nH]ncc4c3c3c2CCC3)cc1` gave a GI50 (U251 CNS) of 1.02 µM, a TGI (U251 CNS) of 6.51 µM and a GI50 (CAKI-1 renal) of 0.263 µM. For the same molecule, the TGI (CAKI-1 renal) was 5.54 µM, the GI50 (BT-549 breast) was 0.65 µM and the TGI (BT-549 breast) was 1.43 µM. The GI50 (K-562 leukemia) was 1.11 µM, the TGI (K-562 leukemia) was 20.1 µM and the GI50 (HCT-15 colon) was 1.61 µM. For the same molecule, the TGI (HCT-15 colon) was 7.63 µM, the GI50 (SN12C renal) was 1.13 µM and the TGI (SN12C renal) was 4.15 µM. It also gave a GI50 (A498 renal) of 0.281 µM, a TGI (A498 renal) of 1.07 µM and a GI50 (OVCAR-8 ovarian) of 0.854 µM. It also gave a TGI (OVCAR-8 ovarian) of 5.8 µM, a GI50 (EKVX NSCLC) of 0.891 µM and a TGI (EKVX NSCLC) of 5.01 µM. For the same molecule, the GI50 (UACC-257 melanoma) was 2.31 µM, the TGI (UACC-257 melanoma) was 8.36 µM and the GI50 (LOX IMVI melanoma) was 0.616 µM. The TGI (LOX IMVI melanoma) was 1.5 µM, the GI50 (SK-MEL-2 melanoma) was 0.85 µM and the TGI (SK-MEL-2 melanoma) was 1.83 µM. For the same molecule, the GI50 (UACC-62 melanoma) was 1.1 µM, the TGI (UACC-62 melanoma) was 6.1 µM and the GI50 (HL-60(TB) leukemia) was 0.992 µM. The TGI (HL-60(TB) leukemia) was 3.34 µM, the GI50 (HCT-116 colon) was 0.331 µM and the TGI (HCT-116 colon) was 4.34 µM. It also gave a GI50 (HCC-2998 colon) of 1.25 µM, a TGI (HCC-2998 colon) of 5.68 µM and a GI50 (SK-MEL-5 melanoma) of 1.6 µM. For the same molecule, the TGI (SK-MEL-5 melanoma) was 5.98 µM, the GI50 (MOLT-4 leukemia) was 1.04 µM and the TGI (MOLT-4 leukemia) was 15.3 µM. For the same molecule, the GI50 (HOP-62 NSCLC) was 0.593 µM, the TGI (HOP-62 NSCLC) was 2.67 µM and the GI50 (DU-145 prostate) was 0.76 µM. The TGI (DU-145 prostate) was 5.01 µM, the GI50 (MALME-3M melanoma) was 1.26 µM and the TGI (MALME-3M melanoma) was 4.13 µM. It also gave a GI50 (HT29 colon) of 1.29 µM, a TGI (HT29 colon) of 6.13 µM and a GI50 (SW-620 colon) of 0.611 µM. For the same molecule, the TGI (SW-620 colon) was 3.61 µM, the GI50 (SF-539 CNS) was 0.606 µM and the TGI (SF-539 CNS) was 1.74 µM. It also gave a GI50 (SR leukemia) of 0.14 µM, a TGI (SR leukemia) of 2.82 µM and a GI50 (SNB-75 CNS) of 0.543 µM. It also gave a TGI (SNB-75 CNS) of 2.04 µM, a GI50 (HOP-92 NSCLC) of 0.343 µM and a TGI (HOP-92 NSCLC) of 1.84 µM. The GI50 (RXF 393 renal) was 0.279 µM, the TGI (RXF 393 renal) was 1.1 µM and the GI50 (SF-268 CNS) was 0.634 µM. For the same molecule, the TGI (SF-268 CNS) was 2.14 µM, the GI50 (UO-31 renal) was 1.07 µM and the TGI (UO-31 renal) was 4.66 µM. It also gave a GI50 (NCI-H23 lung) of 1.19 µM, a TGI (NCI-H23 lung) of 3.94 µM and a GI50 (MCF7 breast) of 0.657 µM. The TGI (MCF7 breast) was 5.25 µM, the GI50 (OVCAR-4 ovarian) was 1.33 µM and the TGI (OVCAR-4 ovarian) was 5.48 µM. The GI50 (MDA-MB-435) was 1.13 µM, the TGI (MDA-MB-435) was 6.99 µM and the GI50 (IGROV1 ovarian) was 0.684 µM. For the same molecule, the TGI (IGROV1 ovarian) was 5.4 µM, the GI50 (SK-OV-3 ovarian) was 0.288 µM and the TGI (SK-OV-3 ovarian) was 3.04 µM. It also gave a GI50 (KM12 colon) of 1.08 µM, a TGI (KM12 colon) of 4.62 µM and a GI50 (M14 melanoma) of 0.961 µM. The TGI (M14 melanoma) was 6.08 µM, the GI50 (NCI-H226 lung) was 1.01 µM and the TGI (NCI-H226 lung) was 6.34 µM. It also gave a GI50 (NCI-H460 lung) of 1.28 µM, a TGI (NCI-H460 lung) of 5.17 µM and a GI50 (786-0 renal) of 0.882 µM. It also gave a TGI (786-0 renal) of 5.61 µM, a GI50 (PC-3 prostate) of 0.717 µM and a TGI (PC-3 prostate) of 4.96 µM. The GI50 (SF-295 CNS) was 1.34 µM, the TGI (SF-295 CNS) was 5.38 µM and the GI50 (SNB-19 CNS) was 1.47 µM. It also gave a TGI (SNB-19 CNS) of 6.21 µM, a GI50 (COLO 205 colon) of 0.507 µM and a TGI (COLO 205 colon) of 2.23 µM. The GI50 (TK-10 renal) was 0.295 µM, the TGI (TK-10 renal) was 5.38 µM and the GI50 (ACHN renal) was 0.844 µM. The TGI (ACHN renal) was 6.86 µM, the GI50 (CCRF-CEM leukemia) was 0.857 µM and the TGI (CCRF-CEM leukemia) was 28.7 µM. It also gave a GI50 (T-47D breast) of 1.37 µM, a TGI (T-47D breast) of 9.66 µM and a GI50 (NCI-H522 lung) of 0.387 µM. For the same molecule, the TGI (NCI-H522 lung) was 1.32 µM, the GI50 (OVCAR-5 ovarian) was 1.4 µM and the TGI (OVCAR-5 ovarian) was 7.34 µM. For the same molecule, the GI50 (MDA-MB-231 breast) was 0.927 µM, the TGI (MDA-MB-231 breast) was 2.84 µM and the GI50 (HS 578T breast) was 0.549 µM. The TGI (HS 578T breast) was 1.99 µM, the GI50 (NCI/ADR-RES ovarian) was 9.07 µM and the TGI (NCI/ADR-RES ovarian) was 50 µM. For the same molecule, the GI50 (A549 NSCLC) was 1.26 µM, the TGI (A549 NSCLC) was 6.78 µM and the GI50 (RPMI-8226 leukemia) was 1.19 µM. It also gave a TGI (RPMI-8226 leukemia) of 4.14 µM, a GI50 (SK-MEL-28 melanoma) of 1.31 µM and a TGI (SK-MEL-28 melanoma) of 5.34 µM.
